Values quoted from earlier work as cited in patent publication US5998440A, “Azetidine, pyrrolidine and piperidine derivatives” (Merck Sharpe & Dohme Ltd., priority 1995, dated 1999).

Conditions: humans, therapeutic doses

In the case of `CNS(=O)(=O)Cc1ccc2[nH]cc(CCN(C)C)c2c1` [sumatriptan], the adverse cardiovascular events is given as “certain adverse cardiovascular events”.
